For one assay, the target named is T1, IL-23R (Homo sapiens, UniProt Q5VWK5).
T1 construct: host or cells: HEK293
T1 sequence (Q5VWK5 24-629): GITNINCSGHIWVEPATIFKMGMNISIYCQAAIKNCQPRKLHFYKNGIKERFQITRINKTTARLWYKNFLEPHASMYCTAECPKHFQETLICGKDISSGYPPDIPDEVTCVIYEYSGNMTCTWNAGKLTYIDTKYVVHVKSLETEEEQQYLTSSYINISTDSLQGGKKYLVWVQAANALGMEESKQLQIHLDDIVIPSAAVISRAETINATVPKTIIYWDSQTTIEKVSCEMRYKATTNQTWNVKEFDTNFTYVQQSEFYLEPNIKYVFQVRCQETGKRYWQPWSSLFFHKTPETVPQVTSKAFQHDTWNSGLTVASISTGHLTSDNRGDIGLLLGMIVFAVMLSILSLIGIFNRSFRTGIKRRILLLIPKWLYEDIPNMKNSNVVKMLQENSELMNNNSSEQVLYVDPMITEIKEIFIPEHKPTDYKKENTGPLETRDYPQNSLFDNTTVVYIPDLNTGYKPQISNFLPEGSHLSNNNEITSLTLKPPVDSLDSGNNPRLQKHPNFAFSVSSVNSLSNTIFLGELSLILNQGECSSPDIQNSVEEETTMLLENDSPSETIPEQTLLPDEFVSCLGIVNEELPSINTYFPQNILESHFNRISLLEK
Briefly: IL23R Reporter Assay. The conditions noted are these: HEK293 cells containing IL-23R, IL-12Rβ1 and STAT-inducible luciferase reporter; 10 ng/mL IL-23; 5 h; read-out: IC50. It counts as cell-based. As for the experimental part: Compounds were serially diluted in 100% (v/v) DMSO) and plated using an Echo acoustic dispenser (Labcyte) into 1536-well non-treated black assay plates (Corning #9146). […] After 5 h at 37° C., 5% CO2, 95% relative humidity, cells were placed at 20° C. and treated with BioGlo reagent (Promega) according to the Manufacturer's instructions. Luminescence was measured on a Pherastar FSX (BMG LabTech).
A general note: In a reporter assay the amount or activity of a reporter protein is the signal.

Assay [1] has as its target T2, IL-23-stimulated phosphorylated STAT3 in peripheral blood mononuclear cells (PBMCs) (Homo sapiens, UniProt Q5VWK5).
T2 sequence (Q5VWK5 24-629): T1 sequence (Q5VWK5 24-629)
As to the kind of experiment: PBMC pSTAT3 Assay. The class given is cell-based. As to conditions: PBMCs from healthy donors, IL-23 5 ng/mL, 30 minutes, read-out: PBMC pSTAT3 IC50. As for the experimental part:
Cryopreserved peripheral blood mononuclear cells (PBMCs) from healthy donors were thawed and washed twice in ImmunoCult-XF T cell expansion medium (XF-TCEM) supplemented with CTL anti-aggregate wash. The cells were counted, resuspended at 2-6×10^5 cells per mL XF-TCEM supplemented with penicillin/streptomycin and 100 ng/mL IL-1β (BioLegend, 579404), and cultured in tissue culture flasks coated with anti-CD3 (eBioscience, 16-0037-85 or BD Pharmingen, 555329) at 37° C. in 5% CO2. On day 4 of culture, PBMCs were collected, washed twice in RPMI-1640 supplemented with 0.1% BSA (RPMI-BSA), and incubated in RPMI-BSA in upright tissue culture flasks for ˜4 hours at 37° C. in 5% CO2. Following this ‘starvation,’ a total of 6×10^4 cells in 30 μL RPMI-BSA was transferred into each well of a 384-well plate pre-spotted with peptide or DMSO. The cells were incubated for 30 minutes prior to the addition of IL-23 at a final concentration of 5 ng/mL. The cells were stimulated with cytokine for 30 minutes at 37° C. in 5% CO2, transferred onto ice for 10 minutes, and lysed. Cell lysates were stored at −80° C. until phosphorylated STAT3 was measured using the phospho-STAT panel kit (Meso Scale Discovery, K15202D).

The structures appear in SMILES notation. Starred links: 1 amine or outer side, 2 acyl side, 3 side chain; linkers in the order of their positions; H or OH if unused. Positions of bridges follow the written chain, without caps; N, C: chain ends. Non-standard residues stand in square brackets, D forms with d. Residues, ends and D or L forms follow the SMILES beside them. *: point of attachment. Trp(7-(3-AcNH-Ph)) = CC(=O)Nc1cccc(-c2cccc3c(C[C@H](N)C(=O)O)c[nH]c23)c1; X4 = O=C([C@H](Cc1ccc2cc(-c3ccc(N4CCOCC4)cc3)ccc2c1)N[*:1])[*:2]; Me3N+(CH2)2O(CH2)2O(CH2)2CO = C[N+](C)(C)CCOCCOCCC(=O)*; 2Nal(6-OH) = N[C@@H](Cc1ccc2cc(O)ccc2c1)C(=O)O; Trp(7-Me) = Cc1cccc2c(C[C@H](N)C(=O)O)c[nH]c12; 3Pal(5-Me) = Cc1cncc(C[C@H](N)C(=O)O)c1; Dab(NMeAc) = CC(=O)N(C)CC[C@H](N)C(=O)O; AEF = NCCOc1ccc(C[C@H](N)C(=O)O)cc1; 3Pal = N[C@@H](Cc1cccnc1)C(=O)O; Ethyl(2-guanidino) = N=C(N)NCC*; Lys(Me) = CNCCCC[C@H](N)C(=O)O; Pen = CC(C)(S)[C@H](N)C(=O)O; Thp = NC1(C(=O)O)CCOCC1; Sar = CNCC(=O)O

On to `CC(=O)N(C)CCCC[C@@H]1NC(=O)[C@H](Cc2c[nH]c3c(C)cccc23)NC(=O)[C@H]([C@@H](C)O)NC(=O)[C@H](CC(=O)N(C)C)NC(=O)[C@@H](NC(=O)CCOCCOCC[N+](C)(C)C)C(C)(C)SSC(C)(C)[C@@H](C(=O)N[C@@H](Cc2ccc(OCCN)cc2)C(=O)N[C@@H](Cc2ccc3cc(O)ccc3c2)C(=O)NC2(C(=O)N[C@@H](CCN(C)C(C)=O)C(=O)N[C@@H](CC(N)=O)C(=O)N[C@@H](Cc3cccnc3)C(=O)N(C)CC(=O)N(C)C)CCOCC2)NC1=O` [compound 371, cPEG3aCO-Pen(3)-N(N(Me)2)-T-7MeW-K(NMeAc)-Pen(3)-AEF-6OH2Nal-THP-Dab(NMeAc)-N-3Pya-Sar-CON(Me)2] ({Me3N+(CH2)2O(CH2)2O(CH2)2CO}-[Pen]D(NMe2)T[Trp(7-Me)][Lys(Me)](Ac)[Pen][AEF][2Nal(6-OH)][Thp][Dab(NMeAc)]N[3Pal][Sar]-NMe2; disulfide 1-6), for which the IC50 (as a rule, the concentration that inhibits the measured activity by half) is below 10 nM on IL-23R and below 0.01 nM in assay [1].

Turning to `CC(=O)NCCCC[C@@H]1NC(=O)[C@H](Cc2c[nH]c3c(-c4cccc(NC(C)=O)c4)cccc23)NC(=O)[C@H]([C@@H](C)O)NC(=O)[C@H](CC(N)=O)NC(=O)[C@@H](NC(=O)CCOCCOCC[N+](C)(C)C)C(C)(C)SSC(C)(C)[C@@H](C(=O)N[C@@H](Cc2ccc(OCCNC(=N)N)cc2)C(=O)N[C@@H](Cc2ccc3cc(O)ccc3c2)C(=O)NC2(C(=O)N[C@@H](CCCCN(C)C(C)=O)C(=O)N[C@@H](CC(N)=O)C(=O)N[C@@H](Cc3cccnc3)C(=O)N(C)CC(N)=O)CCOCC2)NC1=O` [compound 34, cPEG3aCO-Pen(3)-N-T-7(3NAcPh)W-K(Ac)-Pen(3)-AEF(G)-6OH2Nal-THP-K(NMeAc)-N-3Pya-Sar-CONH2] ({Me3N+(CH2)2O(CH2)2O(CH2)2CO}-[Pen]NT[Trp(7-(3-AcNH-Ph))]K(Ac)[Pen]Y(Ethyl(2-guanidino))[2Nal(6-OH)][Thp][Lys(Me)](Ac)N[3Pal][Sar]-NH2; disulfide 1-6), the IC50 is below 10 nM at IL-23R and 0.01 to 0.1 nM in assay [1].

For the compound `CC(=O)NCCCC[C@@H]1NC(=O)[C@H](Cc2c[nH]c3c(-c4cccc(NC(C)=O)c4)cccc23)NC(=O)[C@H]([C@@H](C)O)NC(=O)[C@H](CC(N)=O)NC(=O)[C@@H](NC(=O)[C@@H](CCCNC(=N)N)NC(C)=O)C(C)(C)SSC(C)(C)[C@@H](C(=O)N[C@@H](Cc2ccc(OCCNC(=N)N)cc2)C(=O)N[C@@H](Cc2ccc3cc(O)ccc3c2)C(=O)NC2(C(=O)N[C@@H](CCC(=O)O)C(=O)N[C@@H](CC(N)=O)C(=O)N[C@@H](Cc3cncc(C)c3)C(=O)N(C)CC(N)=O)CCOCC2)NC1=O` [compound 15, MeCO-r-Pen(3)-N-T-7(3NAcPh)W-K(Ac)-Pen(3)-AEF(G)-6OH2Nal-THP-E-N-5MePyridinAla-Sar-CONH2] (Ac-[dR][Pen]NT[Trp(7-(3-AcNH-Ph))]K(Ac)[Pen]Y(Ethyl(2-guanidino))[2Nal(6-OH)][Thp]EN[3Pal(5-Me)][Sar]-NH2; disulfide 2-7), the results for the IC50 (at IL-23R; in assay [1]) were below 10 nM and below 0.01 nM, respectively.

As for `CC(=O)NCCCC[C@@H]1NC(=O)[C@H](Cc2c[nH]c3c(C)cccc23)NC(=O)[C@H]([C@@H](C)O)NC(=O)[C@H](CC(N)=O)NC(=O)[C@@H](NC(=O)[C@@H](CCCNC(=N)N)NC(C)=O)C(C)(C)SSC(C)(C)[C@@H](C(=O)N[C@@H](Cc2ccc(OCCN)cc2)C(=O)N[C@@H](Cc2ccc3cc(-c4ccc(N5CCOCC5)cc4)ccc3c2)C(=O)NC2(C(=O)N[C@@H](CCC(=O)O)C(=O)N[C@@H](CC(N)=O)C(=O)NC3(C(N)=O)CCOCC3)CCOCC2)NC1=O` [SEQ ID NO: 432, MeCO-r-Pen(3)-N-T-7MeW-K(Ac)-Pen(3)-AEF-2Nal6(Ph4(NMorph))-THP-E-N-THP-CONH2] (Ac-[dR][Pen]NT[Trp(7-Me)]K(Ac)[Pen][AEF][X4][Thp]EN[Thp]-NH2; disulfide 2-7), the IC50 at IL-23R is above 100 nM.
